What was measured:
Assay in all cases: KINOMEscan binding assay
Conditions in all cases: read-out: % Ctrl @ 10000 nM
EPHB3 = EPHB3 (Homo sapiens, UniProt P54753)
[1] = target: ABL1 (Q252H) non-phosphorylated (Homo sapiens, UniProt P00519, Q252H)
PKMYT1 = PKMYT1 (Homo sapiens, UniProt Q99640)
NEK11 = NEK11 (Homo sapiens, UniProt Q8NG66)
MST4 = MST4 (Homo sapiens, UniProt Q9P289)
MKNK1 = MKNK1 (Homo sapiens, UniProt Q9BUB5)
CSNK1G2 = CSNK1G2 (Homo sapiens, UniProt P78368)
NEK2 = NEK2 (Homo sapiens, UniProt P51955)
EPHB6 = EPHB6 (Homo sapiens, UniProt O15197)
PIK3CA (E545A) = PIK3CA (E545A) (Homo sapiens, UniProt P42336, E545A)
SRMS = SRMS (Homo sapiens, UniProt Q9H3Y6)
MET (M1250T) = MET (M1250T) (Homo sapiens, UniProt P08581, M1250T)
FER = FER (Homo sapiens, UniProt P16591)
DAPK3 = DAPK3 (Homo sapiens, UniProt O43293)
CDK4-cyclinD3 = CDK4-cyclinD3 (Homo sapiens, UniProt P11802)
FRK = FRK (Homo sapiens, UniProt P42685)
QSK = QSK (Homo sapiens, UniProt Q9Y2K2)
PIK3CD = PIK3CD (Homo sapiens, UniProt O00329)
ERK4 = ERK4 (Homo sapiens, UniProt P31152)
TLK1 = TLK1 (Homo sapiens, UniProt Q9UKI8)
PRKG1 = PRKG1 (Homo sapiens, UniProt Q13976)
[2] = target: ABL1 (T315I) phosphorylated (Homo sapiens, UniProt P00519, T315I)
CAMK2G = CAMK2G (Homo sapiens, UniProt Q13555)
BRK = BRK (Homo sapiens, UniProt Q13882)
MST1R = MST1R (Homo sapiens, UniProt Q04912)
[3] = target: ABL1 (F317L) non-phosphorylated (Homo sapiens, UniProt P00519, F317L)
CAMKK2 = CAMKK2 (Homo sapiens, UniProt Q96RR4)
YANK1 = target: T1, YANK1 (Homo sapiens, UniProt Q8WU08)
T1 construct: purchased DiscoveRx (KINOMEscan, LeadHunter Discovery services)

DYRK2 = DYRK2 (Homo sapiens, UniProt Q92630)
RAF1 = RAF1 (Homo sapiens, UniProt P04049)
TYRO3 = target: T2, TYRO3 (Homo sapiens, UniProt Q06418)
T2 construct: purchased DiscoveRx (KINOMEscan, LeadHunter Discovery services)

TNNI3K = TNNI3K (Homo sapiens, UniProt Q59H18)
MET (Y1235D) = MET (Y1235D) (Homo sapiens, UniProt P08581, Y1235D)
DAPK1 = DAPK1 (Homo sapiens, UniProt P53355)
SRC = SRC (Homo sapiens, UniProt P12931)
FGFR4 = FGFR4 (Homo sapiens, UniProt P22455)
ULK2 = target: T3, ULK2 (Homo sapiens, UniProt Q8IYT8)
T3 construct: purchased DiscoveRx (KINOMEscan, LeadHunter Discovery services)

[4] = target: T4, TYK2 JH2domain-pseudokinase (Homo sapiens, UniProt P29597)
T4 construct: JH2domain-pseudokinase; purchased DiscoveRx (KINOMEscan, LeadHunter Discovery services)

YSK1 = target: T5, YSK1 (Homo sapiens, UniProt O00506)
T5 construct: purchased DiscoveRx (KINOMEscan, LeadHunter Discovery services)

MST2 = MST2 (Homo sapiens, UniProt Q13188)
ASK2 = ASK2 (Homo sapiens, UniProt O95382)

Chain of MST2 (Q13188 whole entry): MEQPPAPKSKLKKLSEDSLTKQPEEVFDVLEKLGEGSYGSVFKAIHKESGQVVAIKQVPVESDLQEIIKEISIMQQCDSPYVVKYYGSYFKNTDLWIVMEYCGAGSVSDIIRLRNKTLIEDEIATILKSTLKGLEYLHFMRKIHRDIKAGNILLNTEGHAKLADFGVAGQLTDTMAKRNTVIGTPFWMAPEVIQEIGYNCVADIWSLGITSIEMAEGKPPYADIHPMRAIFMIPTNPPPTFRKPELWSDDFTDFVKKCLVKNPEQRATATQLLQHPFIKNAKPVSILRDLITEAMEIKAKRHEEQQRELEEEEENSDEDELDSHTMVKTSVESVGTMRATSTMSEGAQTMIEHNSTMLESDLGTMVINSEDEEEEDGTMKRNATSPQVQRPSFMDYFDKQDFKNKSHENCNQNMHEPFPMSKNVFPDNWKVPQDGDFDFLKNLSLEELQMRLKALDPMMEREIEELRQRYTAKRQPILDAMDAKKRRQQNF
T5 sequence (O00506 whole entry): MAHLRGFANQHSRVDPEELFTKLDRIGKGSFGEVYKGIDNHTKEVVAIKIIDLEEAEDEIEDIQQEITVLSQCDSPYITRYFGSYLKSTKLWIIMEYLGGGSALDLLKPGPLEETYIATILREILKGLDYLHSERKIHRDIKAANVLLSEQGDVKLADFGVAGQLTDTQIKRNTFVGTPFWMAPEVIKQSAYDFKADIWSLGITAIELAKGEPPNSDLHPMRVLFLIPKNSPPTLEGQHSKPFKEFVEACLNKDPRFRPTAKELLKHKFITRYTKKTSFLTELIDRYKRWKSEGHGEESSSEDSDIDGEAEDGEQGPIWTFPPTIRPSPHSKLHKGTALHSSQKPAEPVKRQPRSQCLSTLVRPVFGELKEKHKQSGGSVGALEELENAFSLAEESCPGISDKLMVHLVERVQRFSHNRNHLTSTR
Chain of SRC (P12931 whole entry): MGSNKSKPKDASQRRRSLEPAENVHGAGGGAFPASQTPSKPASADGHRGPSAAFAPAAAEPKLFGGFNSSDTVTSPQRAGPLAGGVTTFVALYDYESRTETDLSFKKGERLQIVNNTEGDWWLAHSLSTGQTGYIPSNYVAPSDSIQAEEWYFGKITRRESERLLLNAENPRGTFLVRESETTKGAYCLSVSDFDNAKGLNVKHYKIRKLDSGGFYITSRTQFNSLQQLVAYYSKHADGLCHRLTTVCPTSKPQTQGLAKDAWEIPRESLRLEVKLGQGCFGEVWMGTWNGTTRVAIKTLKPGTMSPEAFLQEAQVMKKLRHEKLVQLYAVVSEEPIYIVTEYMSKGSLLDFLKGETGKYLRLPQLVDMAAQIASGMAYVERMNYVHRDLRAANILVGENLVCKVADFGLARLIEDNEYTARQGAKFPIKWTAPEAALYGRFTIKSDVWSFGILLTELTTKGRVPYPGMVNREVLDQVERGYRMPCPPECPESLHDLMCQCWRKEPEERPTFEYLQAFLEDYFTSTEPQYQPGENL
Chain of CAMK2G (Q13555 whole entry): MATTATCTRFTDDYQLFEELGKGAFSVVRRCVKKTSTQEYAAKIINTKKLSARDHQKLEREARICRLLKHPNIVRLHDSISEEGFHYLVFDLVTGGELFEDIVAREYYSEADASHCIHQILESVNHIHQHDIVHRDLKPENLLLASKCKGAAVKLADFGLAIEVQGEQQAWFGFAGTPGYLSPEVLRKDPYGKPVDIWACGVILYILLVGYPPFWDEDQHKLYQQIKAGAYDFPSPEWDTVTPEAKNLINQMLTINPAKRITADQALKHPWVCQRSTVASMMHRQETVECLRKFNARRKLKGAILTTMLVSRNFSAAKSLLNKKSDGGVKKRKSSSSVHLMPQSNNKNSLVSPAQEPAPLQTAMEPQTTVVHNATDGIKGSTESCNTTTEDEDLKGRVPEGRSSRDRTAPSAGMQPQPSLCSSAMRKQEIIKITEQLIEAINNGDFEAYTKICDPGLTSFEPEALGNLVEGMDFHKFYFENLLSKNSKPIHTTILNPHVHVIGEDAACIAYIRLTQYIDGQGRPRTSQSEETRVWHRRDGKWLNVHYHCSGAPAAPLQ
Chain of FER (P16591 whole entry): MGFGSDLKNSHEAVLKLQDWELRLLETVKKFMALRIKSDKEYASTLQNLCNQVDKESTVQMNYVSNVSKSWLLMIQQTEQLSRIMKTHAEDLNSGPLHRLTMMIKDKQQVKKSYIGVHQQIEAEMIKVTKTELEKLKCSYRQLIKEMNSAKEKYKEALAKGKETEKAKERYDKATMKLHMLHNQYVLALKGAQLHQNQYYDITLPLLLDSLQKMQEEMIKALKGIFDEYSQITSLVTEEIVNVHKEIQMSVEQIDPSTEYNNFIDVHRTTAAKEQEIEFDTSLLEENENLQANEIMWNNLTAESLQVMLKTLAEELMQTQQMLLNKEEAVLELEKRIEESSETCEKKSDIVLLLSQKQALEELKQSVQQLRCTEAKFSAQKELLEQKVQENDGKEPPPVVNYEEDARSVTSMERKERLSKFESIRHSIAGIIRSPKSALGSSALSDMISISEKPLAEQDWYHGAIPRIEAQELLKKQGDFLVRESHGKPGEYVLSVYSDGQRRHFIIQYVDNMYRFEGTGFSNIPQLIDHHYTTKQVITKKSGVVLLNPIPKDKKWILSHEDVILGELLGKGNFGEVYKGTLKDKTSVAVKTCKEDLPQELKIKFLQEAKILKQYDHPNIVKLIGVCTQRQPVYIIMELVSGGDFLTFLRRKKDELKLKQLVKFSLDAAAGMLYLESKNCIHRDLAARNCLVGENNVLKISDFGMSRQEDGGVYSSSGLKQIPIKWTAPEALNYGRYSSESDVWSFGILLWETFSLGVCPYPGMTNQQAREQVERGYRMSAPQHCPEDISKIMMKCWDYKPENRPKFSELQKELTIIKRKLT
T3 sequence (Q8IYT8 whole entry): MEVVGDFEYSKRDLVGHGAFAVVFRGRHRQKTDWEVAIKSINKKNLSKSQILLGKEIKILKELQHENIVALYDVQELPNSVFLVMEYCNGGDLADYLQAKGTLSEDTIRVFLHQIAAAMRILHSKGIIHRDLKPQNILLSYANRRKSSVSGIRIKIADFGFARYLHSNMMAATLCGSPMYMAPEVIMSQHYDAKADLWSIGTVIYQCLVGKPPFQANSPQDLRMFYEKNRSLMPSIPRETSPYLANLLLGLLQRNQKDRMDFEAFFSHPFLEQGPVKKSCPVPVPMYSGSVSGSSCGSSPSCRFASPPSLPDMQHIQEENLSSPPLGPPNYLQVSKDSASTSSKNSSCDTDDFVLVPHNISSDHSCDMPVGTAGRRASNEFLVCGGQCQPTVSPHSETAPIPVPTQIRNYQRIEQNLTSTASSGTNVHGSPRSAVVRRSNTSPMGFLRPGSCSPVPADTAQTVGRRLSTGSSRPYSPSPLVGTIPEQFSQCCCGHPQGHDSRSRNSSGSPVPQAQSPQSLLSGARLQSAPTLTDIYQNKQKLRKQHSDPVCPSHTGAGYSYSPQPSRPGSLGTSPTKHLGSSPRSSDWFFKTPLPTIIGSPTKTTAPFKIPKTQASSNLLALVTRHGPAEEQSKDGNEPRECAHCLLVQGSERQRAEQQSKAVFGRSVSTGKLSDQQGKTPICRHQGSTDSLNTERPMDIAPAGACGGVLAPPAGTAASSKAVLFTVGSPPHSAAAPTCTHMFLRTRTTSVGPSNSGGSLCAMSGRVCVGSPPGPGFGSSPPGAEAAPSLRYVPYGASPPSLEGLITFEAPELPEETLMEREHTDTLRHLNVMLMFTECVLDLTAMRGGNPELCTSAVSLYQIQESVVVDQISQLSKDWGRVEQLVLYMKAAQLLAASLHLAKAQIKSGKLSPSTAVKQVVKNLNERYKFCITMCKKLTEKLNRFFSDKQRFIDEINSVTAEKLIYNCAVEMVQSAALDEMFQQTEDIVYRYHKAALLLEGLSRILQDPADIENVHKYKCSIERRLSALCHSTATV
Chain of EPHB6 (O15197 32-1021): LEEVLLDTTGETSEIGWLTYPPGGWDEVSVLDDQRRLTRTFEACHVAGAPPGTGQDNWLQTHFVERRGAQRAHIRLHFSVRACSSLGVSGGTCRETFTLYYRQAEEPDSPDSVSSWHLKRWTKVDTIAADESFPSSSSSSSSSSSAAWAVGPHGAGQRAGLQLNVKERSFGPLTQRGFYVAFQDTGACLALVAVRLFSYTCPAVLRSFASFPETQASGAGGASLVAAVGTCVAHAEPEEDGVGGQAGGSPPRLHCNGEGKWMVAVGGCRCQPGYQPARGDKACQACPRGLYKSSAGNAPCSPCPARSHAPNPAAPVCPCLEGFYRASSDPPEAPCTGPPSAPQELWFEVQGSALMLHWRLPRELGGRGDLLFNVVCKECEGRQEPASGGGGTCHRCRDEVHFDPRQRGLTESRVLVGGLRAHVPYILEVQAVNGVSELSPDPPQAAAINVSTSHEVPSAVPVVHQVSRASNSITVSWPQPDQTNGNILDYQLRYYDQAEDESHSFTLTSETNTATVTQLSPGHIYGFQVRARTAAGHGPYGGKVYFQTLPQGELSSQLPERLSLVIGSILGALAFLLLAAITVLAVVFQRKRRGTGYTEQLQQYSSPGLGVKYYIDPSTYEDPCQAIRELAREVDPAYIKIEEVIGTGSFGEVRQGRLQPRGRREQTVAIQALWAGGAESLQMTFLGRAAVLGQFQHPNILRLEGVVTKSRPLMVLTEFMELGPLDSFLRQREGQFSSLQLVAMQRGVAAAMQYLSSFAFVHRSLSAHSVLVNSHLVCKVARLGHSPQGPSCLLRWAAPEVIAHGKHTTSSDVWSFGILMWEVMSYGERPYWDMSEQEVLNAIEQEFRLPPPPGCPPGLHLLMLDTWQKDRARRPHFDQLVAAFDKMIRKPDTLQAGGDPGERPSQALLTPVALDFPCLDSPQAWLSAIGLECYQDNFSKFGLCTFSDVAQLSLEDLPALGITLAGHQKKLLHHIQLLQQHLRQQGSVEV

Structure (SMILES): Nc1ncc(-c2nc3ccccc3o2)c(-c2ccncc2)n1 [Comparative Compound 324, 5-(1,3-benzoxazol-2-yl)-4-(pyridine-4-yl)pyrimidin-2-amine]
- remaining binding at 10 µM (EPHB3): 95%
- remaining binding at 10 µM [1]: 31%
- remaining binding at 10 µM (PKMYT1): 100%
- remaining binding at 10 µM (NEK11): 86%
- remaining binding at 10 µM (MST4): 68%
- remaining binding at 10 µM (MKNK1): 96%
- remaining binding at 10 µM (CSNK1G2): 72%
- remaining binding at 10 µM (NEK2): 98%
- remaining binding at 10 µM (EPHB6): 65%
- remaining binding at 10 µM (PIK3CA (E545A)): 76%
- remaining binding at 10 µM (SRMS): 100%
- remaining binding at 10 µM (MET (M1250T)): 97%
- remaining binding at 10 µM (FER): 100%
- remaining binding at 10 µM (DAPK3): 100%
- remaining binding at 10 µM (CDK4-cyclinD3): 100%
- remaining binding at 10 µM (FRK): 100%
- remaining binding at 10 µM (QSK): 99%
- remaining binding at 10 µM (PIK3CD): 100%
- remaining binding at 10 µM (ERK4): 90%
- remaining binding at 10 µM (TLK1): 96%
- remaining binding at 10 µM (PRKG1): 100%
- remaining binding at 10 µM [2]: 85%
- remaining binding at 10 µM (CAMK2G): 100%
- remaining binding at 10 µM (BRK): 99%
- remaining binding at 10 µM (MST1R): 85%
- remaining binding at 10 µM [3]: 100%
- remaining binding at 10 µM (CAMKK2): 97%
- remaining binding at 10 µM (YANK1): 66%
- remaining binding at 10 µM (DYRK2): 82%
- remaining binding at 10 µM (RAF1): 100%
- remaining binding at 10 µM (TYRO3): 99%
- remaining binding at 10 µM (TNNI3K): 100%
- remaining binding at 10 µM (MET (Y1235D)): 83%
- remaining binding at 10 µM (DAPK1): 87%
- remaining binding at 10 µM (SRC): 84%
- remaining binding at 10 µM (FGFR4): 100%
- remaining binding at 10 µM (ULK2): 100%
- remaining binding at 10 µM [4]: 66%
- remaining binding at 10 µM (YSK1): 84%
- remaining binding at 10 µM (MST2): 94%
- remaining binding at 10 µM (ASK2): 99%

Structure (SMILES): CNc1c(C(N)=O)c2ccccn2c1C(=O)c1ccc(F)cc1 [Compound A, 2-methyl-amino-3-[(4-fluorophenyl)carbonyl]indolizine-1-carboxamide]
- remaining binding at 10 µM (EPHB3): 42%
- remaining binding at 10 µM [1]: 11%
- remaining binding at 10 µM (PKMYT1): 52%
- remaining binding at 10 µM (NEK11): 88%
- remaining binding at 10 µM (MST4): 65%
- remaining binding at 10 µM (MKNK1): 100%
- remaining binding at 10 µM (CSNK1G2): 99%
- remaining binding at 10 µM (NEK2): 92%
- remaining binding at 10 µM (EPHB6): 64%
- remaining binding at 10 µM (PIK3CA (E545A)): 73%
- remaining binding at 10 µM (SRMS): 93%
- remaining binding at 10 µM (MET (M1250T)): 83%
- remaining binding at 10 µM (FER): 98%
- remaining binding at 10 µM (DAPK3): 86%
- remaining binding at 10 µM (CDK4-cyclinD3): 96%
- remaining binding at 10 µM (FRK): 58%
- remaining binding at 10 µM (QSK): 82%
- remaining binding at 10 µM (PIK3CD): 100%
- remaining binding at 10 µM (ERK4): 78%
- remaining binding at 10 µM (TLK1): 87%
- remaining binding at 10 µM (PRKG1): 100%
- remaining binding at 10 µM [2]: 100%
- remaining binding at 10 µM (CAMK2G): 87%
- remaining binding at 10 µM (BRK): 92%
- remaining binding at 10 µM (MST1R): 81%
- remaining binding at 10 µM [3]: 88%
- remaining binding at 10 µM (CAMKK2): 82%
- remaining binding at 10 µM (YANK1): 81%
- remaining binding at 10 µM (DYRK2): 83%
- remaining binding at 10 µM (RAF1): 95%
- remaining binding at 10 µM (TYRO3): 100%
- remaining binding at 10 µM (TNNI3K): 78%
- remaining binding at 10 µM (MET (Y1235D)): 77%
- remaining binding at 10 µM (DAPK1): 77%
- remaining binding at 10 µM (SRC): 40%
- remaining binding at 10 µM (FGFR4): 100%
- remaining binding at 10 µM (ULK2): 95%
- remaining binding at 10 µM [4]: 86%
- remaining binding at 10 µM (YSK1): 64%
- remaining binding at 10 µM (MST2): 89%
- remaining binding at 10 µM (ASK2): 100%

Source: patent publication US10815230B2, “Casein kinase 1 delta inhibitor” (ELECTROPHORETICS LIMITED, priority 2015, dated 2020)
